Experimental data: patent US20080188490A1, “Acetylene Derivatives” (priority 2005, published 2008)
Counter-ions that a name gives are not always drawn.

Assays:
[1] = system: stress-induced hyperthermia; experiment: stress-induced hyperthermia in mice; type: in vivo; conditions: control hyperthermia 0.98±0.08° C.
Description: A. Lecci et al., Psychopharmacol. 101, 255-261]. At doses of about 0.1 to about 30 mg/kg p.o., selected agents of the invention reverse the stress-induced hyperthermia.
With (±)-(1R,3R)-3-(4-Chloro-phenylamino)-1-(3-chloro-phenylethynyl)-cyclohexanol, a stress-induced hyperthermia of 0.98±0.08° C. was reduced to 0.66±0.06° C. at 1 mg/kg p.o., to […] at 3 mg/kg p.o.; to 0.58±0.06° C. at 10 mg/kg p.o. and to 0.33±0.04° C. at 30 mg/kg p.o. (p<0.05; p<0.0011; p<0.01; p<0.001 respectively).

[2] = molecular target: T1, hmGluR5 (Homo sapiens, UniProt P41594); experiment: inhibition of quisqualate-induced inositol phosphate turnover in hmGluR5 expressing cells; type: cell-based; conditions: agonist quisqualate, read-out: IC50 concentration, inhibition of quisqualate-induced inositol phosphate turnover
T1 construct: expressed in transfected cells
T1 sequence (P41594 21-1180 isoform P41594-2 limits assumed): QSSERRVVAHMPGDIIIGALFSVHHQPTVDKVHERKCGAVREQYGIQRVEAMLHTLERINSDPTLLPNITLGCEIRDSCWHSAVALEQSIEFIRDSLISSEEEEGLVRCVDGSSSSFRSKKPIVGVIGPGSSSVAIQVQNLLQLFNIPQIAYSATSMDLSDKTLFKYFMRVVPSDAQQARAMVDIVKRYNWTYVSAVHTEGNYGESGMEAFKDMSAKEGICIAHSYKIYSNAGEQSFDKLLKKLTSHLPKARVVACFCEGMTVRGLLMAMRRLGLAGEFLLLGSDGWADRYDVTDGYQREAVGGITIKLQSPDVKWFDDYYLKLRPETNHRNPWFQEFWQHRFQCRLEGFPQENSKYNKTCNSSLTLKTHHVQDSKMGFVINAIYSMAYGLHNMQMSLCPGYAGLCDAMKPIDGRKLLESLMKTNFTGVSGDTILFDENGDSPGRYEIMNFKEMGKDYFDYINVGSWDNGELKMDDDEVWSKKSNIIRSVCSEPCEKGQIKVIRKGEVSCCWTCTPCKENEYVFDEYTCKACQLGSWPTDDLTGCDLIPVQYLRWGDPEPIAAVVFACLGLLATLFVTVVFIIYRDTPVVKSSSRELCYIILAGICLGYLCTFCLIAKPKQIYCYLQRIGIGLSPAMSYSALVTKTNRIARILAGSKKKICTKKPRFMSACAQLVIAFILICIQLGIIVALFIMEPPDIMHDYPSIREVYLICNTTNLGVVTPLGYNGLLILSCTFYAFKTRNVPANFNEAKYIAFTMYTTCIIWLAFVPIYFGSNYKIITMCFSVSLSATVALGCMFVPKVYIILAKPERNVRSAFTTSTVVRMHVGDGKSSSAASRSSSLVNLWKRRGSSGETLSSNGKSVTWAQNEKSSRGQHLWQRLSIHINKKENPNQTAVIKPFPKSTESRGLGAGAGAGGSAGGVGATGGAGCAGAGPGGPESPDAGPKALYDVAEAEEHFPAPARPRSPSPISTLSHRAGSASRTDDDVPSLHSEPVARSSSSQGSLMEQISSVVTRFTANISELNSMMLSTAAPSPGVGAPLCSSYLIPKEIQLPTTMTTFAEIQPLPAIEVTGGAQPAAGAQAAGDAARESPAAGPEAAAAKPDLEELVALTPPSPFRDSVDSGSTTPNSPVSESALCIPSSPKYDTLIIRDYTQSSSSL
Source text: This can be determined in vitro for example at recombinant human metabotropic glutamate receptors, especially PLC-coupled subtypes thereof such as mGluR5, using different procedures like, for example, measurement of the inhibition of the agonist induced elevation of intracellular Ca^2+ concentration in accordance with L. P. Daggett et al., Neuropharm. Vol. 34, pages 871-886 (1995), P. J. Flor et al., J. Neurochem. Vol. 67, pages 58-63 (1996) or by determination to what extent the agonist induced elevation of the inositol phosphate turnover is inhibited as described by T. Knoepfel et al., Eur. J. Pharmacol. Vol. 288, pages 389-392 (1994), L. P. Daggett et al., Neuropharm. Vol. 67, pages 58-63 (1996) and references cited therein. Isolation and expression of human mGluR subtypes are described in U.S. Pat. No. 5,521,297. Selected agents of the invention show IC50 values for the inhibition of the agonist (e.g. glutamate or quisqualate) induced elevation of intracellular Ca2+ concentration or the agonist (e.g. glutamate or quisqualate) induced inositol phosphate turnover, measured in recombinant cells expressing hmGluR5a of about 1nM to about 50 μM.

With `O[C@]1(C#Cc2cccc(Cl)c2)CCC[C@@H](Nc2ccc(Cl)cc2)C1` (racemic) (as salt: hydrochloride) [Example 1, (±)-(1R,3R)-3-(4-Chloro-phenylamino)-1-(3-chloro-phenylethynyl)-cyclohexanol] as the molecule, how does the melting point read?
The melting point was 153 to 163 °C.

For `O[C@]1(C#Cc2cccc(Cl)c2)CCC[C@@H](Nc2ccc(Cl)cc2)C1` (racemic) [Example 1, (±)-(1R,3R)-3-(4-Chloro-phenylamino)-1-(3-chloro-phenylethynyl)-cyclohexanol], which “stress-induced hyperthermia after treatment” value (from here on “stress-induced hyperthermia”) ([1]; 1 mg/kg p.o., p<0.05) is on record?
Its value is 0.66±0.06 °C.

What about the “stress-induced hyperthermia” value ([1]; 3 mg/kg p.o., p<0.0011) of the same molecule?
Its value is 0.43±10 °C.

What about the “stress-induced hyperthermia” value ([1]; 10 mg/kg p.o., p<0.01) of the same molecule?
The value was 0.58±0.06 °C.

And the “stress-induced hyperthermia” value ([1]; 30 mg/kg p.o., p<0.001)?
The value was 0.33±0.04 °C.

What about the IC50 [2] of the same molecule?
The IC50 was 1600 nM.

Which melting point does the source give for `O[C@@]1(C#Cc2cccc(Cl)c2)CCC[C@H](Nc2cc(-c3ccco3)[nH]n2)C1` [Example 1.26, (1S,3S)-1-(3-Chloro-phenylethynyl)-3-(5-furan-2-yl-1H-pyrazol-3-ylamino)-cyclohexanol] here?
Its melting point is 83 to 88 °C.

With `O[C@]1(C#Cc2cccc(Cl)c2)CCC[C@@H](Nc2cc(-c3ccco3)[nH]n2)C1` [Example 1.27, (1R,3R)-1-(3-Chloro-phenylethynyl)-3-(5-furan-2-yl-1H-pyrazol-3-ylamino)-cyclohexanol] as the molecule, how does the melting point read?
The melting point was 78 to 85 °C.
